The source made the active and inactive calls. The calls are words filed in the database; no cut-off is given here.
Assays:
[1] = Permeability in BALB/c mouse assessed as brain to plasma ratio at 10 mg/kg, po measured for 0.25 to 24 hrs by LC-MS/MS analysis; type: ADME, organism-based; conditions: time 0.25-24 hrs
[2] = Half life in BALB/c mouse brain at 10 mg/kg, po measured for 0.25 to 24 hrs by LC-MS/MS analysis; type: ADME, organism-based; conditions: time 0.25-24 hrs
Tau-tubulin kinase 1 [3] = biological target: T1, Tau-tubulin kinase 1 (Homo sapiens, UniProt Q5TCY1); test: Inhibition of TTBK1 in sporadic ALS patient derived human lymphoblasts assessed as reduction in cytosolic TDP-43 levels at 5 to 10 uM treated for 24 hrs by Western blot analysis; type: cell-based; conditions: Lymphoblastoid cell, dose 5-10 µM
[4] = AUClast in BALB/c mouse plasma at 5 mg/kg, ip measured for 0.08 to 24 hrs by LC-MS/MS analysis; type: ADME, organism-based; design: dose 5 mg/kg, time 0.08-24 hrs, route ip
[5] = Cmax in BALB/c mouse plasma at 10 mg/kg, po measured for 0.25 to 24 hrs by LC-MS/MS analysis; type: ADME, organism-based; design: time upper 24 hrs, time lower 0.25 hrs, dose 10 mg/kg, route po
Tau-tubulin kinase 1 [6] = biological target: T1, Tau-tubulin kinase 1; test: Inhibition of TTBK1 in sporadic ALS patient derived human lymphoblasts assessed as reduction in TDP-43 phosphorylation levels at 5 to 10 uM treated for 24 hrs by Western blot analysis; type: cell-based; conditions: Lymphoblastoid cell, dose 5-10 µM
Mus musculus [7] = test: Immunomodulatory effect in Prp-hTDP-43 (A315T) transgenic mouse assessed as reduction in iNOS expression in lumbar region of spinal cord at 5 mg/kg, ip qd for 30 days by Western blot analysis; type: functional, organism-based; conditions: time 30.0 day
[8] = Tmax in BALB/c mouse brain at 5 mg/kg, ip measured for 0.08 to 24 hrs by LC-MS/MS analysis; type: ADME, organism-based; conditions: time 0.08-24 hrs
[9] = Tmax in BALB/c mouse plasma at 10 mg/kg, po measured for 0.25 to 24 hrs by LC-MS/MS analysis; type: ADME, organism-based; conditions: time 0.25-24 hrs
Mus musculus [10] = test: Prevention of TDP-43 phosphorylation level in Wild type mouse at lumbar region of spinal cord tissue at 5 mg/kg, ip qd for 30 days by Immunoblot assay; type: functional, organism-based; conditions: time 30.0 day
SH-SY5Y [11] = test: Neuroprotective activity against ethacrynic acid-induced neurotoxicity human SH-SY5Y cells assessed as decrease in TDP-43 phosphorylation at Ser409 at 5 uM preincubated for 1 hr followed by EA addition and further incubated for 24 hrs by Western blot analysis; type: functional, cell-based; conditions: time 25.0 hrs
[12] = Permeability coefficient in BALB/c mouse assessed as brain to plasma ratio at 5 mg/kg, ip measured for 0.08 to 24 hrs by LC-MS/MS analysis; type: ADME, organism-based; conditions: time 0.08-24 hrs
[13] = Tmax in BALB/c mouse plasma at 5 mg/kg, ip measured for 0.08 to 24 hrs by LC-MS/MS analysis; type: ADME, organism-based; conditions: time 0.08-24 hrs
[14] = Half life in BALB/c mouse plasma at 10 mg/kg, po measured for 0.25 to 24 hrs by LC-MS/MS analysis; type: ADME, organism-based; conditions: time 0.25-24 hrs
[15] = Tmax in BALB/c mouse brain at 10 mg/kg, po measured for 0.25 to 24 hrs by LC-MS/MS analysis; type: ADME, organism-based; conditions: time 0.25-24 hrs
[16] = AUClast in BALB/c mouse brain at 5 mg/kg, ip measured for 0.08 to 24 hrs by LC-MS/MS analysis; type: ADME, organism-based; design: dose 5 mg/kg, time 0.08-24 hrs, route ip
[17] = AUClast in BALB/c mouse plasma at 10 mg/kg, po measured for 0.25 to 24 hrs by LC-MS/MS analysis; type: ADME, organism-based; design: dose 10 mg/kg, time upper 24 hrs, time lower 0.25 hrs, route po
[18] = Cmax in BALB/c mouse brain at 5 mg/kg, ip measured for 0.08 to 24 hrs by LC-MS/MS analysis; type: ADME, organism-based; design: dose 5 mg/kg, time upper 24 hrs, time lower 0.08 hrs, route ip
[19] = Permeability of the compound at pH 7.4 PBS/EtOH buffer (70:30) by PAMPA-BBB assay
SH-SY5Y [20] = test: Neuroprotective activity against ethacrynic acid-induced neurotoxicity human SH-SY5Y cells assessed as increase in cell viability at 5 uM preincubated for 1 hr followed by ethacrynic acid addition and further incubated for 24 hrs by MTT assay; type: functional, cell-based; conditions: time 25.0 hrs
Mus musculus [21] = test: Immunomodulatory effect in Prp-hTDP-43 (A315T) transgenic mouse assessed as decrease in Iba-1 immunoreactivity in microglial cells at 5 mg/kg, ip qd for 30 days by immunofluorescence analysis; type: functional, organism-based; conditions: time 30.0 day
Mus musculus [22] = test: Immunomodulatory effect in Prp-hTDP-43 (A315T) transgenic mouse assessed as decrease in GFAP immunoreactivity in astrocytes at 5 mg/kg, ip qd for 30 days by immunofluorescence analysis; type: functional, organism-based; conditions: time 30.0 day
[23] = Cmax in BALB/c mouse plasma at 5 mg/kg, ip measured for 0.08 to 24 hrs by LC-MS/MS analysis; type: ADME, organism-based; design: dose 5 mg/kg, time 0.08-24 hrs, route ip
[24] = biological target: Tau tubulin kinase 1 (Rattus norvegicus) (UniProt A0A0G2JTK1); test: Inhibition of TTBK1 in Wistar rat primary microglia assessed as reduction in LPS-stimulated iNOS induction at 5 to 25 uM measured after 24 hrs by western blot analysis; type: cell-based; conditions: dose 5-25 µM
[25] = Half life in BALB/c mouse plasma at 5 mg/kg, ip measured for 0.08 to 24 hrs by LC-MS/MS analysis; type: ADME, organism-based; conditions: time 0.08-24 hrs
Mus musculus [26] = test: Protection of neuron degeneration in Prp-hTDP-43 (A315T) transgenic mouse assessed as prevention of reduction in number of motor neurons in ventral horn of spinal cord at 5 mg/kg, ip qd for 30 days by choline acetyl transferase staining based immunohistochemistry analysis; type: functional, organism-based; conditions: time 30.0 day
Mus musculus [27] = test: Immunomodulatory effect in Prp-hTDP-43 (A315T) transgenic mouse assessed as increase in […] expression in lumbar region of spinal cord at 5 mg/kg, ip qd for 30 days by western blot analysis; type: functional, organism-based; conditions: time 30.0 day
[28] = Half life in BALB/c mouse brain at 5 mg/kg, ip measured for 0.08 to 24 hrs by LC-MS/MS analysis; type: ADME, organism-based; conditions: time 0.08-24 hrs
Tau-tubulin kinase 1 [29] = biological target: T1, Tau-tubulin kinase 1; test: Inhibition of recombinant human TTBK1 in ethacrynic acid-treated human SH-SY5Y cells assessed as nuclear localization by measuring reduction in cytosolic TDP-43 accumulation at 5 uM preincubated for 1 hr followed by EA addition and further incubated for 24 hrs by confocal laser scanning microscopy; conditions: time 25.0 hrs
[30] = AUClast in BALB/c mouse brain at 10 mg/kg, po measured for 0.25 to 24 hrs by LC-MS/MS analysis; type: ADME, organism-based; design: dose 10 mg/kg, time 0.25-24 hrs, route po
[31] = Cmax in BALB/c mouse brain at 10 mg/kg, po measured for 0.25 to 24 hrs by LC-MS/MS analysis; type: ADME, organism-based; design: dose 10 mg/kg, time upper 24 hrs, time lower 0.25 hrs, route po
Mus musculus [32] = test: Protection of neuron degeneration in Prp-hTDP-43 (A315T) transgenic mouse assessed as prevention of reduction in number of motor neurons in ventral horn of spinal cord at 5 mg/kg, ip qd for 30 days by Nissl staining based immunohistochemistry analysis; type: functional, organism-based; conditions: time 30.0 day
SH-SY5Y [33] = test: Neuroprotective activity against okadaic acid-induced neurotoxicity in human SH-SY5Y cells assessed as reduction in Tau hyperphosphorylation by measuring cell viability at 1 to 5 uM incubated for 24 hrs by MTT assay; type: functional, cell-based; conditions: dose 1-5 µM
Tau-tubulin kinase 1 [34] = biological target: T1, Tau-tubulin kinase 1; test: Inhibition of TTBK1 in sporadic ALS patient derived human lymphoblasts assessed as recovery nuclear localization of TDP-43 levels at 5 to 10 uM treated for 24 hrs by Western blot analysis; type: cell-based; conditions: Lymphoblastoid cell, dose 5-10 µM

T1 sequence (Q5TCY1 whole entry): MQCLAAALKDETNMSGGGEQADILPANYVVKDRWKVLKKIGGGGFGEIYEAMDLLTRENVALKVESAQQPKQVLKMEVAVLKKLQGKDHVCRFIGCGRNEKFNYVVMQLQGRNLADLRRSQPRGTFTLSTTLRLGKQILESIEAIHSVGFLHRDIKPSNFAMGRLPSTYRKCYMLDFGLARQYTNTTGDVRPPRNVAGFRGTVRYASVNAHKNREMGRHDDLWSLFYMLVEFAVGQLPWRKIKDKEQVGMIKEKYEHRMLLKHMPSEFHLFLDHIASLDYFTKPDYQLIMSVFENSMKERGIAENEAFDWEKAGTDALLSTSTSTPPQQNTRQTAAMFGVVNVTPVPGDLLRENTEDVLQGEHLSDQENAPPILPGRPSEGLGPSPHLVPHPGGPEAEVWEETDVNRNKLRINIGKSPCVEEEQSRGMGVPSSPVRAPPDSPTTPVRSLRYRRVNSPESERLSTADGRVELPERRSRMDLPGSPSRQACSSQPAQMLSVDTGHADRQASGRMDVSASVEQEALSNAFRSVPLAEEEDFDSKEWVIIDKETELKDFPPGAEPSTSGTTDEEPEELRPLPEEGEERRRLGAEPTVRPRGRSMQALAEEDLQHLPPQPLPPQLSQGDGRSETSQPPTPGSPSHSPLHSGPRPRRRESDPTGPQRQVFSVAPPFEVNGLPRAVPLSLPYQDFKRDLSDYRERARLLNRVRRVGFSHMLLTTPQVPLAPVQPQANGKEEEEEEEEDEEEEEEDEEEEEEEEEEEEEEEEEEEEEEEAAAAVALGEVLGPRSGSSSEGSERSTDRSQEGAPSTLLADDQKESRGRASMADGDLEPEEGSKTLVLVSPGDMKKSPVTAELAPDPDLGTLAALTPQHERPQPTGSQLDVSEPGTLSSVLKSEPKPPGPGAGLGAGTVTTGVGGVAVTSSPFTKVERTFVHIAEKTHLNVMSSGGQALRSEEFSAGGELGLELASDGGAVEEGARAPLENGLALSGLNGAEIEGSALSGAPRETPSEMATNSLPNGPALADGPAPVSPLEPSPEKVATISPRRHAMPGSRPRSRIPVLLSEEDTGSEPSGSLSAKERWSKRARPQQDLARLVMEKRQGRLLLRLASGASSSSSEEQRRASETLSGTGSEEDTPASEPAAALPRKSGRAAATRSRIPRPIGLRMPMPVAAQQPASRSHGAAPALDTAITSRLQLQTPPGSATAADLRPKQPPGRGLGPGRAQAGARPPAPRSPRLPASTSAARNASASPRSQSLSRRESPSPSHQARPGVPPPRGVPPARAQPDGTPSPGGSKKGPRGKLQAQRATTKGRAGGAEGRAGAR
Tau tubulin kinase 1 (Rattus norvegicus), sequence (A0A0G2JTK1 as listed by the source): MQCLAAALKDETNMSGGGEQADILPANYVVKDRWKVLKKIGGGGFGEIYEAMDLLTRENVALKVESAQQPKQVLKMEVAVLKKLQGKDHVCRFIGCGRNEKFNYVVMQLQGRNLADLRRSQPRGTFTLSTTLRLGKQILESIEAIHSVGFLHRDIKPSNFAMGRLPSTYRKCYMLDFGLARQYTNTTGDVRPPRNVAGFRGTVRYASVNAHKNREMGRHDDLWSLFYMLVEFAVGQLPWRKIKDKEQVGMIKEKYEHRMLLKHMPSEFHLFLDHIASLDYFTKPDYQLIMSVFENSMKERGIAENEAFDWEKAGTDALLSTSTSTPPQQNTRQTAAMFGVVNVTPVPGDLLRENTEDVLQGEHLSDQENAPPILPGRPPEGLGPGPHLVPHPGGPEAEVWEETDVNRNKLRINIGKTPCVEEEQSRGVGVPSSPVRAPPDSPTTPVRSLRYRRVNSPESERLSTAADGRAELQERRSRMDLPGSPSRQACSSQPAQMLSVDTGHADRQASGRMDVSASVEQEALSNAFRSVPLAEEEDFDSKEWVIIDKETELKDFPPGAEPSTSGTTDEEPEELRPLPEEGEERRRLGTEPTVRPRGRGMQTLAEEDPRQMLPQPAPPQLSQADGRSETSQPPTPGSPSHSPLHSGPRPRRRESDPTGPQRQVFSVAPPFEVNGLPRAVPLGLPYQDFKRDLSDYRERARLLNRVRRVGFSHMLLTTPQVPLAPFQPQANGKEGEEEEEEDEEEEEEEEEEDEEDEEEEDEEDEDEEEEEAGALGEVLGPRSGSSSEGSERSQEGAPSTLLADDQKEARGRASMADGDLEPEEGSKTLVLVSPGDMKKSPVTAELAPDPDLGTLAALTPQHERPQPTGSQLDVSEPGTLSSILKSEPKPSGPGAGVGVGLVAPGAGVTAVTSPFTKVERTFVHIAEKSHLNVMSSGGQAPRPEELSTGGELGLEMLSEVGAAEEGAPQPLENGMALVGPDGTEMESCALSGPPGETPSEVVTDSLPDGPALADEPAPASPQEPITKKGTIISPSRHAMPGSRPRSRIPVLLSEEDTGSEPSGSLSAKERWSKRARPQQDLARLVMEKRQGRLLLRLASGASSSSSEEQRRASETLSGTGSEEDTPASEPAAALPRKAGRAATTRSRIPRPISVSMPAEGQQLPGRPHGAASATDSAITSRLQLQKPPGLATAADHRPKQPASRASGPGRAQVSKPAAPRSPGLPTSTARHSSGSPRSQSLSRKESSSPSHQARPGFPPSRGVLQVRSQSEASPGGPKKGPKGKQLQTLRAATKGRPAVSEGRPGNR

With `Clc1ccc(Oc2ccc(Nc3ncnc4[nH]ccc34)cc2)cc1` the Kp [1] was 2.67, the half-life [2] was 3.4 h and the Activity (Tau-tubulin kinase 1 [3]) was “Active”. For the same compound, the AUC(0-t) [4] was 5960 ng·h/mL, the Cmax [5] was 2270 ng/mL and the Activity (Tau-tubulin kinase 1 [6]) was “Active”. For the same compound, the Activity (Mus musculus [7]) was “Active”, the Tmax [8] was 1 h and the Tmax [9] was 2 h. The Activity (Mus musculus [10]) was “Active”, the Activity (SH-SY5Y [11]) was “Active” and the Kp [12] was 2.63. It also gave a Tmax [13] of 1 h, a half-life [14] of 3.3 h and a Tmax [15] of 2 h. It also gave an AUC(0-t) [16] of 15700 ng·h/mL, an AUC(0-t) [17] of 18400 ng·h/mL and a Cmax [18] of 4170 ng/mL. The permeability [19] was “Permeable”, the Activity (SH-SY5Y [20]) was “Active” and the Activity (Mus musculus [21]) was “Active”. For the same compound, the Activity (Mus musculus [22]) was “Active”, the Cmax [23] was 1430 ng/mL and the inhibition [24] was “Active”. For the same compound, the half-life [25] was 3.75 h, the Activity (Mus musculus [26]) was “Active” and the Activity (Mus musculus [27]) was “Active”. For the same compound, the half-life [28] was 3.46 h, the inhibition (Tau-tubulin kinase 1 [29]) was “Active” and the AUC(0-t) [30] was 49200 ng·h/mL. The Cmax [31] was 4920 ng/mL, the Activity (Mus musculus [32]) was “Active” and the Activity (SH-SY5Y [33]) was “Active”. The Activity (Tau-tubulin kinase 1 [34]) was “Active”.

From ChEMBL document CHEMBL5154682, “TDP-43 Modulation by Tau-Tubulin Kinase 1 Inhibitors: A New Avenue for Future Amyotrophic Lateral Sclerosis Therapy” (J Med Chem, 2022)
